From PubChem BioAssay AID2060912 (Molecular Pharmacology Branch, DTP, NCI, 2025)

System: HUVEC/MSC spheroids viability
Assay: Human HUVEC/MSC cell line growth inhibition [KRAS2];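 as to viability, T/C: percent of DMSO vehicle control luminescence so 100% = untreated viability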
Conditions: for IC50: curve of first compound; for viability, T/C: stronger effect = lower value
Outline: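 Spheroids of pooled-donor HUVEC and hMSC (passage ≤5) without tumour cells were treated with KRAS-pathway inhibitors alone and combined with targeted agents. Top concentration was at or near clinical Cmax, or 10 microM when Cmax was unknown, descending in half-log steps.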

[1] = second compound 0.0316 µM, first compound 0.0316 µM
[2] = second compound 0.0316 µM, first compound 0.1 µM
[3] = second compound 0.0316 µM, first compound 0.316 µM
[4] = second compound 0.0316 µM, first compound 1 µM
[5] = second compound 0.0316 µM, first compound 3.16 µM
[6] = second compound 0.0316 µM, first compound 10 µM
[7] = second compound 0.1 µM, first compound 0.0316 µM
[8] = second compound 0.1 µM, first compound 0.1 µM
[9] = second compound 0.1 µM, first compound 0.316 µM
[10] = second compound 0.1 µM, first compound 1 µM
[11] = second compound 0.1 µM, first compound 3.16 µM
[12] = second compound 0.1 µM, first compound 10 µM
[13] = second compound 0.316 µM, first compound 0.0316 µM
[14] = second compound 0.316 µM, first compound 0.1 µM
[15] = second compound 0.316 µM, first compound 0.316 µM
[16] = second compound 0.316 µM, first compound 1 µM
[17] = second compound 0.316 µM, first compound 3.16 µM
[18] = second compound 0.316 µM, first compound 10 µM
[19] = second compound 1 µM, first compound 0.0316 µM
[20] = second compound 1 µM, first compound 0.1 µM
[21] = second compound 1 µM, first compound 0.316 µM
[22] = second compound 1 µM, first compound 1 µM
[23] = second compound 1 µM, first compound 3.16 µM
[24] = second compound 1 µM, first compound 10 µM
[25] = second compound 3.16 µM, first compound 0.0316 µM
[26] = second compound 3.16 µM, first compound 0.1 µM
[27] = second compound 3.16 µM, first compound 0.316 µM
[28] = second compound 3.16 µM, first compound 1 µM
[29] = second compound 3.16 µM, first compound 3.16 µM
[30] = second compound 3.16 µM, first compound 10 µM
[31] = second compound 10 µM, first compound 0.0316 µM
[32] = second compound 10 µM, first compound 0.1 µM
[33] = second compound 10 µM, first compound 0.316 µM
[34] = second compound 10 µM, first compound 1 µM
[35] = second compound 10 µM, first compound 3.16 µM
[36] = second compound 10 µM, first compound 10 µM

CC(C)NCC(C(=O)N1CCN(c2ncnc3c2C(C)CC3O)CC1)c1ccc(Cl)cc1 (stereo unspecified) + C=CC(=O)N1CCN(c2nc(=O)n(-c3c(C)ccnc3C(C)C)c3nc(-c4c(O)cccc4F)c(F)cc23)C(C)C1
IC50 (second compound 0.0316 µM): > 10 µM | IC50 (second compound 0.1 µM): > 10 µM | IC50 (second compound 0.316 µM): > 10 µM | IC50 (second compound 1 µM): > 10 µM | IC50 (second compound 3.16 µM): > 10 µM | IC50 (second compound 10 µM): > 10 µM | viability, T/C [1]: 87.5% | viability, T/C [2]: 93.7% | viability, T/C [3]: 97.1% | viability, T/C [4]: 77.7% | viability, T/C [5]: 52.4% | viability, T/C [6]: 53.6% | viability, T/C [7]: 92.4% | viability, T/C [8]: 104% | viability, T/C [9]: 85.8% | viability, T/C [10]: 76.1% | viability, T/C [11]: 54.9% | viability, T/C [12]: 64.9% | viability, T/C [13]: 98.7% | viability, T/C [14]: 102% | viability, T/C [15]: 82.2% | viability, T/C [16]: 65.8% | viability, T/C [17]: 59.4% | viability, T/C [18]: 63.1% | viability, T/C [19]: 105% | viability, T/C [20]: 99.4% | viability, T/C [21]: 96.4% | viability, T/C [22]: 71.3% | viability, T/C [23]: 58% | viability, T/C [24]: 68.1% | viability, T/C [25]: 96.8% | viability, T/C [26]: 124% | viability, T/C [27]: 86.6% | viability, T/C [28]: 84.6% | viability, T/C [29]: 62.9% | viability, T/C [30]: 68.9% | viability, T/C [31]: 110% | viability, T/C [32]: 119% | viability, T/C [33]: 102% | viability, T/C [34]: 64.5% | viability, T/C [35]: 65% | viability, T/C [36]: 47.2%

CC1(C)CCC(CN2CCN(c3ccc(C(=O)NS(=O)(=O)c4ccc(NCC5CCOCC5)c([N+](=O)[O-])c4)c(Oc4cnc5[nH]ccc5c4)c3)CC2)=C(c2ccc(Cl)cc2)C1 + C=CC(=O)N1CCN(c2nc(=O)n(-c3c(C)ccnc3C(C)C)c3nc(-c4c(O)cccc4F)c(F)cc23)C(C)C1
IC50 (second compound 0.0316 µM): 4.57 µM | IC50 (second compound 0.1 µM): 4.7 µM | IC50 (second compound 0.316 µM): 5.75 µM | IC50 (second compound 1 µM): 5.28 µM | IC50 (second compound 3.16 µM): 5.97 µM | IC50 (second compound 10 µM): 5.96 µM | viability, T/C [1]: 105% | viability, T/C [2]: 92% | viability, T/C [3]: 95.4% | viability, T/C [4]: 85.4% | viability, T/C [5]: 75.2% | viability, T/C [6]: 2.28% | viability, T/C [7]: 114% | viability, T/C [8]: 101% | viability, T/C [9]: 114% | viability, T/C [10]: 85.7% | viability, T/C [11]: 80.1% | viability, T/C [12]: 3.17% | viability, T/C [13]: 104% | viability, T/C [14]: 100% | viability, T/C [15]: 97.2% | viability, T/C [16]: 115% | viability, T/C [17]: 97.3% | viability, T/C [18]: 6.37% | viability, T/C [19]: 144% | viability, T/C [20]: 125% | viability, T/C [21]: 125% | viability, T/C [22]: 115% | viability, T/C [23]: 86.5% | viability, T/C [24]: 6.99% | viability, T/C [25]: 97% | viability, T/C [26]: 123% | viability, T/C [27]: 104% | viability, T/C [28]: 113% | viability, T/C [29]: 101% | viability, T/C [30]: 8.7% | viability, T/C [31]: 115% | viability, T/C [32]: 143% | viability, T/C [33]: 162% | viability, T/C [34]: 119% | viability, T/C [35]: 93.6% | viability, T/C [36]: 15.4%

Cn1ncnc1[C@H]1c2n[nH]c(=O)c3cc(F)cc(c23)N[C@@H]1c1ccc(F)cc1 + C=CC(=O)N1CCN(c2nc(=O)n(-c3c(C)ccnc3C(C)C)c3nc(-c4c(O)cccc4F)c(F)cc23)C(C)C1
IC50 (second compound 0.0316 µM): > 0.1 µM | IC50 (second compound 0.1 µM): > 0.1 µM | IC50 (second compound 0.316 µM): > 0.1 µM | IC50 (second compound 1 µM): > 0.1 µM | IC50 (second compound 3.16 µM): > 0.1 µM | IC50 (second compound 10 µM): > 0.1 µM | viability, T/C (second compound 0.0316 µM, first compound 0.000316 µM): 101% | viability, T/C (second compound 0.0316 µM, first compound 0.001 µM): 100% | viability, T/C (second compound 0.0316 µM, first compound 0.00316 µM): 74.3% | viability, T/C (second compound 0.0316 µM, first compound 0.01 µM): 94.3% | viability, T/C [1]: 83.1% | viability, T/C [2]: 105% | viability, T/C (second compound 0.1 µM, first compound 0.000316 µM): 92.6% | viability, T/C (second compound 0.1 µM, first compound 0.001 µM): 117% | viability, T/C (second compound 0.1 µM, first compound 0.00316 µM): 101% | viability, T/C (second compound 0.1 µM, first compound 0.01 µM): 79.5% | viability, T/C [7]: 96.2% | viability, T/C [8]: 83.5% | viability, T/C (second compound 0.316 µM, first compound 0.000316 µM): 110% | viability, T/C (second compound 0.316 µM, first compound 0.001 µM): 110% | viability, T/C (second compound 0.316 µM, first compound 0.00316 µM): 97.2% | viability, T/C (second compound 0.316 µM, first compound 0.01 µM): 97.1% | viability, T/C [13]: 99.2% | viability, T/C [14]: 114% | viability, T/C (second compound 1 µM, first compound 0.000316 µM): 114% | viability, T/C (second compound 1 µM, first compound 0.001 µM): 106% | viability, T/C (second compound 1 µM, first compound 0.00316 µM): 95.4% | viability, T/C (second compound 1 µM, first compound 0.01 µM): 106% | viability, T/C [19]: 106% | viability, T/C [20]: 86% | viability, T/C (second compound 3.16 µM, first compound 0.000316 µM): 110% | viability, T/C (second compound 3.16 µM, first compound 0.001 µM): 141% | viability, T/C (second compound 3.16 µM, first compound 0.00316 µM): 101% | viability, T/C (second compound 3.16 µM, first compound 0.01 µM): 140% | viability, T/C [25]: 130% | viability, T/C [26]: 93.5% | viability, T/C (second compound 10 µM, first compound 0.000316 µM): 129% | viability, T/C (second compound 10 µM, first compound 0.001 µM): 127% | viability, T/C (second compound 10 µM, first compound 0.00316 µM): 112% | viability, T/C (second compound 10 µM, first compound 0.01 µM): 103% | viability, T/C [31]: 105% | viability, T/C [32]: 123%
